Publication PMC8537048, “Characterization of Fungal FAD-Dependent AA3_2 Glucose Oxidoreductases from Hitherto Unexplored Phylogenetic Clades” (Journal of Fungi, 2021)
Each block holds one compound with its values, some of them ahead of it.

What was measured:
RsGDHIII = molecular target: T1, RsGDHIII (Rhizoctonia solani, UniProt A0A0B7G104); assay: spectrophotometric steady-state kinetics, reduction of […],4-benzoquinone ([…] nm); format: biochemical; details: 0.5 mM 1,4-benzoquinone fixed, pH 6.5, 30 °C
T1 construct: gene RSOLAG1IB_10481; monomer; non-covalent FAD
T1 sequence (A0A0B7G104 20-601): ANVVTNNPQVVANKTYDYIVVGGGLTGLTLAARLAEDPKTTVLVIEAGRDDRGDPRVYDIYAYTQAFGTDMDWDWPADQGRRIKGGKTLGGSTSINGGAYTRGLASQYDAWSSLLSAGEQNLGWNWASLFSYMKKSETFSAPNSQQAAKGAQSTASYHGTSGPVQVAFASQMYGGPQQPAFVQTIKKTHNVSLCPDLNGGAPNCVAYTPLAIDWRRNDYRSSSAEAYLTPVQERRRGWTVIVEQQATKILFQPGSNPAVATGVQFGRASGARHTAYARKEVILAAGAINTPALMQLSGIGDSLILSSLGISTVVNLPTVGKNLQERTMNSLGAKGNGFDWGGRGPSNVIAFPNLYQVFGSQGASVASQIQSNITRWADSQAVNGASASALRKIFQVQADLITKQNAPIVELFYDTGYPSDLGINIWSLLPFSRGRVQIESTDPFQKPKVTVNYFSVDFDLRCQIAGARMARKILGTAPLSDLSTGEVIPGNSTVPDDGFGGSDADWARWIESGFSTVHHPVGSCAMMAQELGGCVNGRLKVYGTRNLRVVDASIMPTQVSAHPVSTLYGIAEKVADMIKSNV

[1] = molecular target: Aureobasidium subglaciale glucose oxidase (AsGOxII) (Aureobasidium subglaciale); assay: SEC-MALS; HPLC-SEC-MALS of the purified, native glycosylated enzyme; Superdex 200 10/300 GL, PBS pH 7.4 with 200 mM NaCl, 0.75 mL/min, 25 °C; 80 μg of protein loaded per run; oligomeric state judged against the mass of the deglycosylated subunit by SDS-PAGE
TvGDHII = molecular target: T2, TvGDHII (Trichoderma virens, UniProt G9N1C2); assay: spectrophotometric steady-state kinetics, reduction of […],4-benzoquinone ([…] nm); format: biochemical; details: 0.5 mM 1,4-benzoquinone fixed, pH 6.5, 30 °C
T2 construct: gene TRIVIDRAFT_46709; monomer; ~65 kDa deglycosylated; non-covalent FAD
T2 sequence (G9N1C2 entry or part of it): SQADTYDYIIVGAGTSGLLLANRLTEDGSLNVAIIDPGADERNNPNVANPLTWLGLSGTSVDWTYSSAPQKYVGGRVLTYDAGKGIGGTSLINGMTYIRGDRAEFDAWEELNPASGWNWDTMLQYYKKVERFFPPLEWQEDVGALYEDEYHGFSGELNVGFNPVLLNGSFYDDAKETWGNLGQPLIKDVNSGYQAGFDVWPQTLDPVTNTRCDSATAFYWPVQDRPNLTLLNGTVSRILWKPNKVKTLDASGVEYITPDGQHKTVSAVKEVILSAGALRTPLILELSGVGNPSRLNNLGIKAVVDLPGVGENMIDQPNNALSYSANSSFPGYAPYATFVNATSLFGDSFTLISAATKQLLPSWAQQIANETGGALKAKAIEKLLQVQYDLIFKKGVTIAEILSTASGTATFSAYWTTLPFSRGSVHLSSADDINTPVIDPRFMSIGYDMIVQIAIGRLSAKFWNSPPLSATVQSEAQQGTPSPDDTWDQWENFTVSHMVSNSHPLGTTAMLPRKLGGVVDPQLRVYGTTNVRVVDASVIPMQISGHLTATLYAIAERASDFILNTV

Compound: OC[C@H]1O[C@H](O[C@H]2[C@H](O)[C@@H](O)C(O)O[C@@H]2CO)[C@H](O)[C@@H](O)[C@@H]1O (stereo partly drawn) [maltose]
apparent Km (RsGDHIII): 159.6 ± 9.4 mM

stoichiometry N [1]: 2
Compound: Aureobasidium subglaciale glucose oxidase (AsGOxII) (enzyme)

apparent Km (TvGDHII): 42.6 ± 2.4 mM
Compound: OC[C@H]1OC(O)[C@H](O)[C@@H](O)[C@H]1O (stereo partly drawn) [D-galactose]
